Earlier results, collected in article PMC4610172, “5-Arylaminouracil Derivatives as Potential Dual-Action Agents” (Acta Naturae, 2015).

System: MS-115 strain with multiple-drug resistance
Details: MS-115 resistant to isoniazid, rifampicin, streptomycin, ethambutol, pyrazinamide; cited from earlier work

SMILES: CCCCOc1ccc(Nc2cn(C3C=CC(O)C3)c(=O)n(C3C=CC(O)C3)c2=O)cc1 (stereo not shown) [Compound 19]
- Activity against MS-115 strain relative to sensitive H37Rv laboratory strain: higher activity against the MS-115 strain
